This passage reports Emax and EC50 results from patent US20230000842A1, “METHODS OF TREATING CARTILAGE DISORDERS THROUGH INHIBITION OF CLK AND DYRK” (SAMUMED, LLC, priority 2019, published 2023).

Experiment [1] relates to primary human mesenchymal stem cells (hMSCs). The experiment is described as follows: Chondrogenesis screening using primary human mesenchymal stem cells. The note with it: Homo sapiens, Mesenchymal stem cells, hMSC chondrogenesis; for Emax: maximum activity relative to TGF-β3 (10 ng/mL) positive control, read-out: Max. Activity as % TGF-β3 activity; for EC50: concentration required to induce 50% levels of chondrogenesis with TGF-β3 as positive control, read-out: Conc (nM) of 50% TGF-β3 activity. In kind it is cell-based. A digest of the protocol:
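Derived values are EC50 for 50% chondrogenesis, maximal activity and the dose giving it. These come from nodule area in passage 3–6 primary hMSCs, expressed as fold change over the mean of 3 same-plate DMSO wells, 2–3 replicates per concentration. TGF-β3 served as positive control.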

In experiment [2] the target is CLK2 kinase (Homo sapiens, UniProt P49760). The experiment is described as follows: CLK2 kinase activity assay (Z-lyte FRET).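 Note: FRET read-out as coumarin to fluorescein emission ratio, unphosphorylated peptide as 0% and phosphorylated peptide as 100% controls, duplicate reactions, non-linear regression fit of dose-response curves.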 It is filed as biochemical. Particulars: Z-lyte Ser/Thr 6 peptide, 60 μM ATP, 1 h at room temperature.
CLK2 kinase, sequence (P49760 whole entry): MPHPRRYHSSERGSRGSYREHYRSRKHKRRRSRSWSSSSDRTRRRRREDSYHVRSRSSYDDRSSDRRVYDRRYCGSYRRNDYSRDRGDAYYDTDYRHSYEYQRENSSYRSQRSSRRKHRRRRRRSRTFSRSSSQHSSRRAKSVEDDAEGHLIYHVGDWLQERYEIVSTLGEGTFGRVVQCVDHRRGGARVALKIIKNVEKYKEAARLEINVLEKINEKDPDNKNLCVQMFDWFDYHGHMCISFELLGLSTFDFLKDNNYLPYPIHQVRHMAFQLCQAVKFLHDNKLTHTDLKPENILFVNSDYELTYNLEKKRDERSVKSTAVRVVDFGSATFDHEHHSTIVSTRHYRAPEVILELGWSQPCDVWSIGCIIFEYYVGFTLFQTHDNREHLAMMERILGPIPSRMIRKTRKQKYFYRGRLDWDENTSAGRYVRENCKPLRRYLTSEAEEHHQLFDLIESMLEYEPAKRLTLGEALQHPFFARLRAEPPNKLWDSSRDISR
Experiment [3] deals with CLK3 kinase (Homo sapiens, UniProt P49761). Kind of experiment: CLK3 kinase activity assay (Z-lyte FRET).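 Note: kinase activity read as coumarin/fluorescein emission ratio by FRET, unphosphorylated peptide as 0% and phosphorylated peptide as 100% control, values from non-linear regression of dose-response curves.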 It is filed as biochemical. The note with it: Z-lyte Ser/Thr 18 peptide, 156 μM ATP, 1 h at room temperature.
CLK3 kinase, sequence (P49761 whole entry): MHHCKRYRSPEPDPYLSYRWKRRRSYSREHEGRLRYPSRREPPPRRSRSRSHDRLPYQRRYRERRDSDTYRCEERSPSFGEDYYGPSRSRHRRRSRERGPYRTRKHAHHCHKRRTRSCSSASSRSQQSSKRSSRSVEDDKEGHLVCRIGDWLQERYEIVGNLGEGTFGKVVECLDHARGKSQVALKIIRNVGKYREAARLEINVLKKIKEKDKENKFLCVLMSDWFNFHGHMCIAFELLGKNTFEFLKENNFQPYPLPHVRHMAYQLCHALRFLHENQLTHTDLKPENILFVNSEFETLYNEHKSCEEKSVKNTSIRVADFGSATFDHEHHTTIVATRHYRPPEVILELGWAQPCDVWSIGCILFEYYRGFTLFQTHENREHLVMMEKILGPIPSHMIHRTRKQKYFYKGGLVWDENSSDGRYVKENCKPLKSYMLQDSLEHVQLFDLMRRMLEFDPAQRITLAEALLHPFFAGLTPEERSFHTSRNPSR
Experiment [4] has as its system Wnt pathway activity (SW480 colon carcinoma cells stably expressing the Sp5-Luc reporter). Kind of experiment: Wnt pathway activity screening assay (Sp5-Luc reporter gene assay). Particulars: Homo sapiens, SW480, Table 4; SW480 cells stably expressing Sp5-Luc reporter, 10-point dose-response from 10 μM, 36 to 48 hours. (In a reporter assay the amount or activity of a reporter protein is the signal.)

`CCC(=O)Nc1cncc(-c2ccc3[nH]nc(-c4nc5c(-c6cccc(F)c6)ccnc5[nH]4)c3n2)c1` [compound 121]: the Emax in experiment [1] is 29.3%. The EC50 in experiment [2] is 3 nM; in experiment [3], 30 nM; in experiment [4] it was over 10000 nM.

Consider `CC(C)CC(=O)Nc1cncc(-c2ccc3[nH]nc(-c4nc5c(-c6cccs6)cncc5[nH]4)c3c2)c1` [compound 256], for which the Emax in experiment [1] amounted to 53.3%. In addition, the EC50 in experiment [2] turned out to be 9 nM; in experiment [3] it was 62 nM; in experiment [4], 0.1 nM.

Take `CC(C)C(=O)Nc1cncc(-c2ccc3[nH]nc(-c4nc5c(-c6cccnc6)cncc5[nH]4)c3c2)c1` [compound 186]: the Emax in experiment [1] turned out to be 34.4%. Besides, the figures for the EC50 in experiment [2], in experiment [3] and in experiment [4] were 4 nM, 37 nM and 5.1 nM, respectively.

As for `c1cncc(-c2cc3c(-c4cc5cccnc5[nH]4)n[nH]c3cn2)c1` [compound 413], in experiment [1], the Emax was 27.6%. Also, the EC50 is 4 nM in experiment [2], 5490 nM in experiment [3] and over 10000 nM in experiment [4].

Take `Fc1ccc(-c2cncc3[nH]c(-c4n[nH]c5cnc(-c6cncc(CN7CCC(F)(F)C7)c6)cc45)cc23)cc1` [compound 317]: the EC50 in experiment [1] stood at 100 nM; in experiment [2], 16 nM; in experiment [3], 9840 nM; in experiment [4] it was 3260 nM. Also, the Emax in experiment [1] came to 78.4%.

In the case of `Nc1cncc(-c2cnc3[nH]nc(-c4nc5c(-c6ccccc6F)ccnc5[nH]4)c3c2)c1` [compound 168], the EC50 in experiment [1] was 300 nM; in experiment [2], 33 nM; in experiment [3], 76 nM; in experiment [4], 12.3 nM. In experiment [1], the Emax came out at 59.9%.

Take `O=C(Cc1ccccc1)Nc1cncc(-c2ccc3[nH]nc(-c4nc5c(-c6cccc(F)c6)cncc5[nH]4)c3c2)c1` [compound 129]: the EC50 is 100 nM in experiment [1], 53 nM in experiment [2], 164 nM in experiment [3] and 23 nM in experiment [4]. The Emax in experiment [1] came to 124%.

In the case of `CCC(=O)Nc1cncc(-c2ccc3[nH]nc(-c4nc5c(N6CCCCC6)cncc5[nH]4)c3n2)c1` [compound 206], the EC50 in experiment [1] is 900 nM; in experiment [2] it was 12 nM; in experiment [3] it was 213 nM; in experiment [4], over 10000 nM. Moreover, the Emax in experiment [1] was determined as 69.8%.

Turning to `CN(C)CCNc1cc(F)cc(-c2cccc3[nH]c(-c4n[nH]c5cnc(-c6cncc(O)c6)cc45)cc23)c1` [compound 515], the EC50 in experiment [1] was found to be 10 nM; in experiment [2], 5 nM; in experiment [3] it was 109 nM; in experiment [4], 405 nM. The Emax in experiment [1] amounted to 66.4%.

For `c1csc(-c2ccnc3[nH]c(-c4n[nH]c5ccc(-c6cncc(OC7CCNCC7)c6)nc45)cc23)c1` [compound 510], the EC50 amounted to 300 nM in experiment [1], 16 nM in experiment [2], 1870 nM in experiment [3] and 3550 nM in experiment [4]. Besides, in experiment [1], the Emax is 51.4%.

Take `O=C(Nc1cncc(-c2cc3c(-c4cc5cnccc5[nH]4)n[nH]c3cn2)c1)C1CC1` [compound 426]: the EC50 in experiment [1] was determined as 30 nM; in experiment [2], 5 nM; in experiment [3], 88 nM; in experiment [4], 1540 nM. Moreover, in experiment [1], the Emax stood at 58.5%.

In the case of `O=C(Nc1cncc(-c2cnc3[nH]nc(-c4nc5c(-c6cccnc6)cncc5[nH]4)c3c2)c1)C1CCC1` [compound 191], the EC50 in experiment [1] came to 300 nM; in experiment [2], 3 nM; in experiment [3] it was 49 nM; in experiment [4], 35.4 nM. Moreover, the Emax in experiment [1] was 130%.

Take `CN(C)Cc1cncc(-c2ccc3[nH]nc(-c4cc5c(-c6cccnc6)cccc5[nH]4)c3n2)c1` [compound 368]: the Emax in experiment [1] was found to be 35.9%. The EC50 in experiment [2] was 4 nM; in experiment [3] it was 102 nM; in experiment [4] it was 415 nM.
